This assay has as its target T1, EGFR (HCC827 cells) (Homo sapiens, UniProt P00533, DEL746-750).
T1 construct: endogenous in cells; host or cells: HCC827
Kind of assay: EGFR degradation HTRF assay, HCC827 cells. It is filed as cell-based. The settings on record: HCC827, 16h treatment; for Dmax: maximum percentage of degradation. As for the experimental part:
BaF3 WT(wild type), BaF3-LTC(L858R/T790M/C797S) and BaF3-DTC(Del19/T790M/C797S) cells are treated with compounds diluted in 0.2% DMSO cell culture medium and incubate for 16h, 37° C., 5% CO2, H1975-#36, H1975-#28, H1975-#23 and HCC827 cells are treated with compounds diluted in 0.2% DMSO cell culture medium on day 2, incubate for 16h, 37° C., 5% CO2.the final concentriation of compounds in all assay is start with 10 uM, 5-fold dilution, total 8 doses were included.
After 16h treatment, add HTRF lysis buffer to each well; seal the plate and incubate 1 hour at room temperature on a plate shaker; Once the cells are lysed, 16 μL of cell lysate are transferred to a PE 384-well HTRF detection plate; 4 μL of pre-mixed HTRF antibodies are added to each well; Cover the plate with a plate sealer, spin 1000 rpm for 1 min, Incubate overnight at room temperature; Read on BMG PheraStar with HTRF protocol (337 nm-665 nm-620 nm).
The inhibition (degradation) percentage of the compound was calculated by the following equation: Inhibition percentage of Compound=100-100×(Signal-low control)/(High control-low control), wherein signal=each test compound group
High control=Cell group with added DMSO and without compound, indicating microplate readings without EGFR degradation;
Dmax is the maximum percentage of inhibition (degradation).
The IC50 (DC50) value of a compound can be obtained by fitting the following equation
Y=Bottom+(TOP−Bottom)/(1+((IC50/X)^hillslope))
Wherein, X and Y are known values, and IC50, Hillslope, Top and Bottom are the parameters obtained by fitting with software. Y is the inhibition percentage (calculated from the equation), X is the concentration of the compound; IC50 is the concentration of the compound when the 50% inhibition is reached. The smaller the IC50 value is, the stronger the inhibitory ability of the compound is. Vice versa, the higher the IC50 value is, the weaker the inhibitory ability of the compound is; Hillslope represents the slope of the fitted curve, generally around 1*; Bottom represents the minimum value of the curve obtained by data fitting, which is generally 0%±20%; Top represents the maximum value of the curve obtained by data fitting, which is generally 100%±20%. The experimental data were fitted by calculating and analyzing with Dotmatics data analysis software.
In general terms: TR-FRET usually uses a lanthanide donor and a delayed reading to cut background.

For orientation: DC50 means the midpoint of the concentration-degradation curve. Low readings indicate a more potent degrader, high ones a less potent degrader. One may read the Dmax as the greatest extent of degradation seen. The low end stands for a partial loss of target, the high end for a fuller loss of target.

T1 sequence (P00533 with tags, fused parts or gaps DEL746-750): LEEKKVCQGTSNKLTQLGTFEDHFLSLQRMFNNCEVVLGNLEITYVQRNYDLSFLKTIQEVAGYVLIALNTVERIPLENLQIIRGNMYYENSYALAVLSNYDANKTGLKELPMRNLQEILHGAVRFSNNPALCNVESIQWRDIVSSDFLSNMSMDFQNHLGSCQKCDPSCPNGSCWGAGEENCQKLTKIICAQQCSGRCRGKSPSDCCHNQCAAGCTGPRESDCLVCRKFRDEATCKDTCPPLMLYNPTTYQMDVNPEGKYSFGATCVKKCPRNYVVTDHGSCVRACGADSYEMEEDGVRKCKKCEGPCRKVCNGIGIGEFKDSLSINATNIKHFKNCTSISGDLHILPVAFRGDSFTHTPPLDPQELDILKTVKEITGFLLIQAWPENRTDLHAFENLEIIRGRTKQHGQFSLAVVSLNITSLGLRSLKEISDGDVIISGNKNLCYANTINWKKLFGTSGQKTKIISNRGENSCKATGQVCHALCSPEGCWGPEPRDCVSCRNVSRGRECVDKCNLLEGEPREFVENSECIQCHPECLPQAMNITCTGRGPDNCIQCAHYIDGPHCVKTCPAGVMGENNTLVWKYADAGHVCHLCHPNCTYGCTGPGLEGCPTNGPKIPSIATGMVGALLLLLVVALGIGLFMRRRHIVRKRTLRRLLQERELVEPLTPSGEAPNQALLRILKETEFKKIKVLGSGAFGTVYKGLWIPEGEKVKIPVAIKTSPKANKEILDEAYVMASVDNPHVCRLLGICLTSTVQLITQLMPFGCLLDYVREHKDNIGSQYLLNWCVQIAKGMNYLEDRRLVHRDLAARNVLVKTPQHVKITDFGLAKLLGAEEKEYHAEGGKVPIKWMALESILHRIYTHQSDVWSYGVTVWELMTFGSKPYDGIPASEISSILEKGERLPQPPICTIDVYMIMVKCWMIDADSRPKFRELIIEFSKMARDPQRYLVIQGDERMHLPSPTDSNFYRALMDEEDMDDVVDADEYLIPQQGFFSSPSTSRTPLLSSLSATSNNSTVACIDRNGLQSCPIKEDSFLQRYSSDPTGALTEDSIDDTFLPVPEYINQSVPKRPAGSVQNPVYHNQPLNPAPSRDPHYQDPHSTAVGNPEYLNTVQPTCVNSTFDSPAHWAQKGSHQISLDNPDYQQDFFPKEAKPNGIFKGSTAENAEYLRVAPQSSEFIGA

Take `COc1cc(N2CCN(CCc3ccc(OC4CCC(=O)NC4=O)cc3)CC2)c(C)cc1Nc1ncc(Br)c(Nc2ccc3nccnc3c2P(C)(C)=O)n1` (centres unmarked) [Example 93, 3-(4-(2-(4-(4-((5-bromo-4-((5-(dimethylphosphoryl)quinoxalin-6-yl)amino)pyrimidin-2-yl)amino)-5-methoxy-2-methylphenyl)piperazin-1-yl)ethyl)phenoxy)piperidine-2,6-dione]: the DC50 is 130 nM and the greatest degradation seen (Dmax) worked out at 72.4%.

`COc1cc(N2CCN(CCC3CCN(c4ccc(N5CCC(=O)NC5=O)cc4)CC3)CC2)c(C)cc1Nc1ncc(Br)c(Nc2ccc3nccnc3c2P(C)(C)=O)n1` [Example 94, 1-(4-(4-(2-(4-(4-((5-bromo-4-((5-(dimethylphosphoryl)quinoxalin-6-yl)amino)pyrimidin-2-yl)amino)-5-methoxy-2-methylphenyl)piperazin-1-yl)ethyl)piperidin-1-yl)phenyl)dihydropyrimidine-2,4(1H,3H)-dione] registered a DC50 of 32.2 nM and a Dmax of 58.5%.

Take `COc1cc(N2CCC(N3CCN(C(=O)CC4CCN(c5ccc(C6CCC(=O)NC6=O)cc5)CC4)CC3)CC2)ccc1Nc1ncc(Cl)c(Nc2ccccc2P(C)(C)=O)n1` (centres unmarked) [Example 107, 3-(4-(4-(2-(4-(1-(4-((5-chloro-4-((2-(dimethylphosphoryl)phenyl)amino)pyrimidin-2-yl)amino)-3-methoxyphenyl)piperidin-4-yl)piperazin-1-yl)-2-oxoethyl)piperidin-1-yl)phenyl)piperidine-2,6-dione]: the DC50 is 17.2 nM and the Dmax stood at 79.3%.

On to `COc1cc(N2CCC(N3CCN(CCc4ccc(NC5CCC(=O)NC5=O)cc4)CC3)CC2)ccc1Nc1ncc(Cl)c(Nc2ccccc2P(C)(C)=O)n1` (centres unmarked) [Example 108], for which the DC50 came to 16.6 nM and the Dmax stood at 82.2%.

In turn, `COc1cc(N2CCC(N3CCN(CCCOc4ccc(OC5CCC(=O)NC5=O)cc4)CC3)CC2)ccc1Nc1ncc(Cl)c(Nc2ccccc2P(C)(C)=O)n1` (centres unmarked) [Example 109, 3-(4-(3-(4-(1-(4-((5-chloro-4-((2-(dimethylphosphoryl)phenyl)amino)pyrimidin-2-yl)amino)-3-methoxyphenyl)piperidin-4-yl)piperazin-1-yl)propoxy)phenoxy)piperidine-2,6-dione] displayed a DC50 of 189 nM and a Dmax of 79.6%.

Compound `COc1cc(N2CCC(N3CCN(CC4CCC(c5ccc(N6CCC(=O)NC6=O)cc5)CC4)CC3)CC2)ccc1Nc1ncc(Cl)c(Nc2ccccc2P(C)(C)=O)n1` (centres unmarked) [Example 110, 1-(4-(4-((4-(1-(4-((5-chloro-4-((2-(dimethylphosphoryl)phenyl)amino)pyrimidin-2-yl)amino)-3-methoxyphenyl)piperidin-4-yl)piperazin-1-yl)methyl)cyclohexyl)phenyl)dihydropyrimidine-2,4(1H,3H)-dione] returned a DC50 of 49.6 nM and a Dmax of 81.2%.

On to `COc1cc(N2CCC(N3CCN(CCc4ccc(CN5CCC(=O)NC5=O)cc4)CC3)CC2)ccc1Nc1ncc(Cl)c(Nc2ccccc2P(C)(C)=O)n1` [Example 111, 1-(4-(2-(4-(1-(4-((5-chloro-4-((2-(dimethylphosphoryl)phenyl)amino)pyrimidin-2-yl)amino)-3-methoxyphenyl)piperidin-4-yl)piperazin-1-yl)ethyl)benzyl)dihydropyrimidine-2,4(1H,3H)-dione], for which half-maximal degradation (DC50) was put at 112 nM and the Dmax turned out to be 81.1%.

`COc1cc(N2CCC(N3CCN(C(=O)CCCCN4CCN(c5ccc6c(c5)C(=O)N(C5CCC(=O)NC5=O)C6=O)CC4)CC3)CC2)ccc1Nc1ncc(Cl)c(Nc2ccccc2P(C)(C)=O)n1` (centres unmarked) [Example 114, 5-(4-(5-(4-(1-(4-((5-chloro-4-((2-(dimethylphosphoryl)phenyl)amino)pyrimidin-2-yl)amino)-3-methoxyphenyl)piperidin-4-yl)piperazin-1-yl)-5-oxopentyl)piperazin-1-yl)-2-(2,6-dioxopiperidin-3-yl)isoindoline-1,3-dione]: the DC50 is 8.23 nM and the Dmax worked out at 82.4%.

In the case of `COc1cc(N2CCC(N3CCN(CCC4CCN(c5ccc(C6CCC(=O)NC6=O)cc5)CC4)CC3)CC2)ccc1Nc1ncc(Cl)c(Nc2ccccc2N(C)S(C)(=O)=O)n1` (centres unmarked) [Example 121, N-(2-((5-chloro-2-((4-(4-(4-(2-(1-(4-(2,6-dioxopiperidin-3-yl)phenyl)piperidin-4-yl)ethyl)piperazin-1-yl)piperidin-1-yl)-2-methoxyphenyl)amino)pyrimidin-4-yl)amino)phenyl)-N-methylmethanesulfonamide], the DC50 worked out at 19 nM and the Dmax was 80.8%.

`COc1cc(N2CCC(N3CCN(C(=O)CC4CCN(c5ccc(C6CCC(=O)NC6=O)cc5)CC4)CC3)CC2)ccc1Nc1ncc(Cl)c(Nc2ccccc2N(C)S(C)(=O)=O)n1` (centres unmarked) [Example 122, N-(2-((5-chloro-2-((4-(4-(4-(2-(1-(4-(2,6-dioxopiperidin-3-yl)phenyl)piperidin-4-yl)acetyl)piperazin-1-yl)piperidin-1-yl)-2-methoxyphenyl)amino)pyrimidin-4-yl)amino)phenyl)-N-methylmethanesulfonamide] had a DC50 of 6.37 nM and a Dmax of 69.2%.

Turning to `COc1cc(N2CCC(N3CCN(CCc4ccc(N5CCC(=O)NC5=O)cc4)CC3)CC2)ccc1Nc1ncc(Cl)c(Nc2ccccc2N(C)S(C)(=O)=O)n1` [Example 124, N-(2-((5-chloro-2-((4-(4-(4-(4-(2,4-dioxotetrahydropyrimidin-1(2H)-yl)phenethyl)piperazin-1-yl)piperidin-1-yl)-2-methoxyphenyl)amino)pyrimidin-4-yl)amino)phenyl)-N-methylmethanesulfonamide], the DC50 came out at 81.6 nM and the Dmax is 80.8%.

For `COc1cc(N2CCC(N3CCN(C(=O)CN4CCN(c5ccc6c(c5)C(=O)N(C5CCC(=O)NC5=O)C6)CC4)CC3)CC2)ccc1Nc1ncc(Cl)c(Nc2ccccc2N(C)S(C)(=O)=O)n1` (centres unmarked) [Example 130, N-(2-((5-chloro-2-((4-(4-(4-(2-(4-(2-(2,6-dioxopiperidin-3-yl)-3-oxoisoindolin-5-yl)piperazin-1-yl)acetyl)piperazin-1-yl)piperidin-1-yl)-2-methoxyphenyl)amino)pyrimidin-4-yl)amino)phenyl)-N-methylmethanesulfonamide], the DC50 was 45.8 nM and the Dmax came out at 80.8%.

Consider `COc1cc(N2CCC(NCCCCCc3ccc(C4CCC(=O)NC4=O)cc3)CC2)ccc1Nc1ncc(Cl)c(Nc2ccccc2N(C)S(C)(=O)=O)n1` (centres unmarked) [Example 131, N-(2-((5-chloro-2-((4-(4-((5-(4-(2,6-dioxopiperidin-3-yl)phenyl)pentyl)amino)piperidin-1-yl)-2-methoxyphenyl)amino)pyrimidin-4-yl)amino)phenyl)-N-methylmethanesulfonamide], for which the DC50 stood at 68.3 nM and the Dmax came out at 80.1%.

As for `COc1cc(N2CCC(NCCCCCCCc3ccc(C4CCC(=O)NC4=O)cc3)CC2)ccc1Nc1ncc(Cl)c(Nc2ccccc2N(C)S(C)(=O)=O)n1` (centres unmarked) [Example 132, N-(2-((5-chloro-2-((4-(4-((7-(4-(2,6-dioxopiperidin-3-yl)phenyl)heptyl)amino)piperidin-1-yl)-2-methoxyphenyl)amino)pyrimidin-4-yl)amino)phenyl)-N-methylmethanesulfonamide], half-maximal degradation (DC50) was put at 34 nM and the Dmax was determined as 80%.

Compound `COc1cc(N2CCN(CCc3ccc(C4CCC(=O)NC4=O)cc3)CC2)ccc1Nc1ncc(Cl)c(Nc2ccccc2N(C)S(C)(=O)=O)n1` (centres unmarked) [Example 133, N-(2-((5-chloro-2-((4-(4-(4-(2,6-dioxopiperidin-3-yl)phenethyl)piperazin-1-yl)-2-methoxyphenyl)amino)pyrimidin-4-yl)amino)phenyl)-N-methylmethanesulfonamide] returned a DC50 of 39.1 nM and a Dmax of 78.2%.

The compound `CN(c1ccccc1Nc1nc(Nc2ccc(N3CC4(CN(CCc5ccc(C6CCC(=O)NC6=O)cc5)C4)C3)c(F)c2)ncc1Cl)S(C)(=O)=O` (centres unmarked) [Example 134, N-(2-((5-chloro-2-((4-(6-(4-(2,6-dioxopiperidin-3-yl)phenethyl)-2,6-diazaspiro[3.3]heptan-2-yl)-3-fluorophenyl)amino)pyrimidin-4-yl)amino)phenyl)-N-methylmethanesulfonamide] displayed a DC50 of 38 nM and a Dmax of 77.6%.

These data come from patent US20230265116A1, “DEGRADATION OF (EGFR) BY CONJUGATION OF EGFR INHIBITORS WITH E3 LIGASE LIGAND AND METHODS OF USE” (BEIGENE, LTD., priority 2020, published 2023).
